IC50 data for 29 compounds are collected here from patent US20150031668A1, “CHROMAN DERIVATIVES AS TRPM8 INHIBITORS” (AMGEN INC., priority 2013, published 2015).

Counter-ions that a name gives are not always drawn.

This assay concerns the target T1, human TRPM8 (Homo sapiens, UniProt Q7Z2W7).
T1 construct: expressed in transfected cells; host or cells: Chinese hamster ovary (CHO) cells, T-REx tetracycline-inducible expression system (Invitrogen); co-transfected with pcDNA3.1 aequorin
In words: Luminescence readout assay for measuring intracellular calcium (aequorin, CHO cells expressing human TRPM8; icilin, L-menthol or cold activation). It counts as cell-based. The note with it: CHO cells expressing human TRPM8, icilin activation (1 μM), aequorin luminescence; read-out: hTRPM8 IC50. The essentials:
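Activation was by 1 μM icilin, 100 μM L-menthol (test compound 2.5 min ahead) or cold buffer below 10° C (compound 1 min ahead). Calcium rise measured as aequorin luminescence in CHO cells with tetracycline-inducible human TRPM8.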

T1 sequence (Q7Z2W7 whole entry): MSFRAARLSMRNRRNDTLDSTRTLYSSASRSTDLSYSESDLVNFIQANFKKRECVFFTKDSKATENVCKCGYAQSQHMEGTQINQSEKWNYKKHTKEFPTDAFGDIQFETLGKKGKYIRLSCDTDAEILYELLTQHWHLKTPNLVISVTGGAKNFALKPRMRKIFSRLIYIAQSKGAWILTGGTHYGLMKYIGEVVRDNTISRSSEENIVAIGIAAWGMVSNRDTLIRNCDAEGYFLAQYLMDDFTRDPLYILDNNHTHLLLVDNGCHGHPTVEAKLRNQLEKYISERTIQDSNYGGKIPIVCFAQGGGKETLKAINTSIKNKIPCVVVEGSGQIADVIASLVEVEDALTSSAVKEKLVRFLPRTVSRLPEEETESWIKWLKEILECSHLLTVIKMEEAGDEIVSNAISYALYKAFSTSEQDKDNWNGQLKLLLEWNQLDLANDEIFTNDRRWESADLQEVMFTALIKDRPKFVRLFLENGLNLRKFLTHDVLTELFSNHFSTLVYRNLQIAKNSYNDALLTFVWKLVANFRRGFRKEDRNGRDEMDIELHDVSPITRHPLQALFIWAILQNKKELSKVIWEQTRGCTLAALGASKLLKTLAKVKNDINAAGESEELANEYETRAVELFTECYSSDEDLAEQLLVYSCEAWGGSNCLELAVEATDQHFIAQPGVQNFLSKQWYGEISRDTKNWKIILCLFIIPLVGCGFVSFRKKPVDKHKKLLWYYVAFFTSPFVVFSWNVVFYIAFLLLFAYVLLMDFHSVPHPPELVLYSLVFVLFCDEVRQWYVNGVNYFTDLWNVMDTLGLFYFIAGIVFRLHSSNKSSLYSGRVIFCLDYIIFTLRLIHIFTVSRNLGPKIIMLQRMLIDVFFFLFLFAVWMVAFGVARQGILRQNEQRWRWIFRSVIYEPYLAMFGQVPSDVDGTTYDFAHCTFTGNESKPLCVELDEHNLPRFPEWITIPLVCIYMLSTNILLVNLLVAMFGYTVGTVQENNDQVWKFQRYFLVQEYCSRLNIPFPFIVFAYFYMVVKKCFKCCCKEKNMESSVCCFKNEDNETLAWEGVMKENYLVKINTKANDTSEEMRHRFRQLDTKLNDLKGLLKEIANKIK

For `COC(=O)c1cc2ccc(C(=O)N[C@]3(c4ccc(OC(F)(F)F)c(F)c4)CCOc4cccnc43)cc2n1C` [Example 196, (S)-methyl 6-((4-(3-fluoro-4-(trifluoromethoxy)phenyl)-3,4-dihydro-2H-pyrano[3,2-b]pyridin-4-yl)carbamoyl)-1-methyl-1H-indole-2-carboxylate], the IC50 was found to be 7 nM.

Consider `O=C(N[C@]1(c2ccc(OC(F)(F)F)c(F)c2)CCOc2cccnc21)c1ccc(C(=O)O)c(Cl)c1` [Example 197, (S)-2-chloro-4-((4-(3-fluoro-4-(trifluoromethoxy)phenyl)-3,4-dihydro-2H-pyrano[3,2-b]pyridin-4-yl)carbamoyl) benzoic acid 2,2,2-trifluoroacetate], for which the concentration for half-maximal inhibition (IC50) is 92 nM.

For `O=C(N[C@]1(c2ccc(OC(F)(F)F)c(F)c2)CCOc2cccnc21)c1cscn1` [Example 198, (S)-N-(4-(3-fluoro-4-(trifluoromethoxy)phenyl)-3,4-dihydro-2H-pyrano[3,2-b]pyridin-4-yl) thiazole-4-carboxamide], the IC50 was 35 nM.

As for `Cc1cc([C@@]2(NC(=O)c3ccc(=O)[nH]c3)CCOc3cccnc32)ccc1OC(F)(F)F` [Example 199, (S)-N-(4-(3-methyl-4-(trifluoromethoxy)phenyl)-3,4-dihydro-2H-pyrano[3,2-b]pyridin-4-yl)-6-oxo-1,6-dihydropyridine-3-carboxamide], the IC50 turned out to be 12 nM.

With `O=C(N[C@]1(c2ccc(OC(F)(F)F)c(F)c2)CCOc2cccnc21)c1cc(Cl)on1` [Example 200, (S)-5-chloro-N-(4-(3-fluoro-4-(trifluoromethoxy)phenyl)-3,4-dihydro-2H-pyrano[3,2-b]pyridin-4-yl) isoxazole-3-carboxainide], the half-maximal inhibitory concentration (IC50) was 163 nM.

Consider `COC(=O)c1ccnc(C(=O)N[C@]2(c3ccc(OC(F)(F)F)c(F)c3)CCOc3cccnc32)c1` [Example 201, (S)-methyl 2-((4-(3-fluoro-4-(trifluoromethoxy)phenyl)-3,4-dihydro-2H-pyrano[3,2-b]pyridin-4-yl)carbamoyl) isonicotinate], for which the half-maximal inhibitory concentration (IC50) worked out at 21 nM.

In the case of `C[C@@H](O)Cn1cc(C(=O)N[C@]2(c3ccc(OC(F)(F)F)c(F)c3)CCOc3cccnc32)ccc1=O` [Example 202, N-((S)-4-(3-fluoro-4-(trifluoromethoxy)phenyl)-3,4-dihydro-2H-pyrano[3,2-b]pyridin-4-yl)-1-((R)-2-hydroxypropyl)-6-oxo-1,6-dihydropyridine-3-carboxamide], the IC50 worked out at 27 nM.

For the compound `O=C(N[C@]1(c2ccc(OC(F)(F)F)c(F)c2)CCOc2cccnc21)c1ccc(Br)s1` [Example 203, (S)-5-bromo-N-(4-(3-fluoro-4-(trifluoromethoxy)phenyl)-3,4-dihydro-2H-pyrano[3,2-b]pyridin-4-yl) thiophene-2-carboxamide], the IC50 worked out at 74 nM.

`O=C(N[C@]1(c2ccc(C(F)(F)F)cc2)CCOc2cccnc21)c1cc(F)c(O)c(F)c1` [Example 205, (S)-3,5-difluoro-4-hydroxy-N-(4-(4-(trifluoromethyl)phenyl)-3,4-dihydro-2H-pyrano[3,2-b]pyridin-4-yl) benzamide]: the IC50 turned out to be 4 nM.

For `O=C(N[C@]1(c2ccc(OC(F)(F)F)c(F)c2)CCOc2cccnc21)c1ccc(Br)cn1` [Example 206, (S)-5-bromo-N-(4-(3-fluoro-4-(trifluoromethoxy)phenyl)-3,4-dihydro-2H-pyrano[3,2-b]pyridin-4-yl) picolinamide], the IC50 was 13 nM.

On to `O=C(N[C@]1(c2ccc(OC(F)(F)F)c(F)c2)CCOc2cccnc21)c1cc(F)c(O)c(F)c1` [Example 207, (S)-3,5-difluoro-N-(4-(3-fluoro-4-(trifluoromethoxy)phenyl)-3,4-dihydro-2H-pyrano[3,2-b]pyridin-4-yl)-4-hydroxybenzamide], for which the IC50 worked out at 1 nM.

With `O=C(N[C@]1(c2ccc(OC(F)(F)F)c(F)c2)CCOc2cccnc21)c1ccc(Br)o1` [Example 208, (S)-5-bromo-N-(4-(3-fluoro-4-(trifluoromethoxy)phenyl)-3,4-dihydro-2H-pyrano[3,2-b]pyridin-4-yl)furan-2-carboxamide], the IC50 is 11 nM.

For the compound `COC(=O)c1cc2ccc(C(=O)N[C@]3(c4ccc(OC(F)(F)F)c(F)c4)CCOc4cccnc43)cc2[nH]1` [Example 209, (S)-methyl 6-((4-(3-fluoro-4-(trifluoromethoxy)phenyl)-3,4-dihydro-2H-pyrano[3,2-b]pyridin-4-yl)carbamoyl)-1H-indole-2-carboxylate], the half-inhibitory concentration (IC50) is 45 nM.

For the compound `O=C(N[C@]1(c2ccc(OC(F)(F)F)cc2)CCOc2cccnc21)c1ncc[nH]1` [Example 210, (S)-N-(4-(4-(trifluoromethoxy)phenyl)-3,4-dihydro-2H-pyrano[3,2-b]pyridin-4-yl)-1H-imidazole-2-carboxamide formate], the IC50 was 2310 nM.

On to `O=C(N[C@]1(c2ccc(OC(F)(F)F)cc2)CCOc2cccnc21)c1cc[nH]n1` [Example 211, (S)-N-(4-(4-(trifluoromethoxy)phenyl)-3,4-dihydro-2H-pyrano[3,2-b]pyridin-4-yl)-1H-pyrazole-3-carboxamide formate], for which the 50% inhibitory concentration (IC50) worked out at 336 nM.

In the case of `O=C(N[C@]1(c2ccc(OC(F)(F)F)cc2)CCOc2cccnc21)c1nnc[nH]1` [Example 212, (S)-N-(4-(4-(trifluoromethoxy)phenyl)-3,4-dihydro-2H-pyrano[3,2-b]pyridin-4-yl)-4H-1,2,4-triazole-3-carboxamide formate], the concentration for half-maximal inhibition (IC50) was found to be 1690 nM.

`O=C(N[C@]1(c2ccc(OC(F)(F)F)cc2)CCOc2cccnc21)c1ccns1` [Example 213, (S)-N-(4-(4-(trifluoromethoxy)phenyl)-3,4-dihydro-2H-pyrano[3,2-b]pyridin-4-yl)isothiazole-5-carboxamide formate]: the half-inhibitory concentration (IC50) was 81 nM.

In the case of `O=C(N[C@]1(c2ccc(OC(F)(F)F)cc2)CCOc2cccnc21)c1cnns1` [Example 214, (S)-N-(4-(4-(trifluoromethoxy)phenyl)-3,4-dihydro-2H-pyrano[3,2-b]pyridin-4-yl)-1,2,3-thiadiazole-5-carboxamide formate], the half-maximal inhibitory concentration (IC50) turned out to be 190 nM.

Regarding `O=C(N[C@]1(c2ccc(OC(F)(F)F)cc2)CCOc2cccnc21)c1cc2cccnc2[nH]1` [Example 216, (S)-N-(4-(4-(trifluoromethoxy)phenyl)-3,4-dihydro-2H-pyrano[3,2-b]pyridin-4-yl)-1H-pyrrolo[2,3-b] pyridine-2-carboxamide formate], the 50% inhibitory concentration (IC50) turned out to be 270 nM.

As for `O=C(N[C@]1(c2ccc(OC(F)(F)F)cc2)CCOc2cccnc21)c1c[nH]c2ncccc12` [Example 217, (S)-N-(4-(4-(trifluoromethoxy)phenyl)-3,4-dihydro-2H-pyrano[3,2-b]pyridin-4-yl)-1H-pyrrolo[2,3-b] pyridine-3-carboxamide fonnate], the IC50 was 46 nM.

For `O=C(N[C@]1(c2ccc(OC(F)(F)F)cc2)CCOc2cccnc21)c1ccnc2[nH]ccc12` [Example 218, (S)-N-(4-(4-(trifluoromethoxy)phenyl)-3,4-dihydro-2H-pyrano[3,2-b]pyridin-4-yl)-1H-pyrrolo[2,3-b] pyridine-4-carboxamide formate], the IC50 was 10 nM.

As for `O=C(N[C@]1(c2ccc(OC(F)(F)F)cc2)CCOc2cccnc21)c1cc2ccccn2n1` [Example 219, (S)-N-(4-(4-(trifluoromethoxy)phenyl)-3,4-dihydro-2H-pyrano[3,2-b]pyridin-4-yl) pyrazolo[1,5-a] pyridine-2-carboxainide formate], the IC50 came out at 11 nM.

As for `O=C(N[C@]1(c2ccc(OC(F)(F)F)cc2)CCOc2cccnc21)c1cc2n(n1)CCCO2` [Example 220, (S)-N-(4-(4-(trifluoromethoxy)phenyl)-3,4-dihydro-2H-pyrano[3,2-b]pyridin-4-yl)-6,7-dihydro-5H-pyrazolo[5,1-b] [1,3]oxazine-2-carboxamide formate], the 50% inhibitory concentration (IC50) worked out at 16 nM.

For `O=C(N[C@]1(c2ccc(OC(F)(F)F)cc2)CCOc2cccnc21)c1cccc2cccnc12` [Example 221, (S)-N-(4-(4-(trifluoromethoxy)phenyl)-3,4-dihydro-2H-pyrano[3,2-b]pyridin-4-yl)quinoline-8-carboxamide formate], the IC50 amounted to 31 nM.

As for `Cc1ccc2[nH]c(C(=O)N[C@]3(c4ccc(OC(F)(F)F)cc4)CCOc4cccnc43)cc2c1` [Example 222, (S)-5-methyl-N-(4-(4-(trifluoromethoxy)phenyl)-3,4-dihydro-2H-pyrano[3,2-b]pyridin-4-yl)-1H-indole-2-carboxamide formate], the IC50 was found to be 2000 nM.

As for `O=C(N[C@]1(c2ccc(OC(F)(F)F)cc2)CCOc2cccnc21)c1ccc2c(=O)[nH]ccc2c1` [Example 223, (S)-1-oxo-N-(4-(4-(trifluoromethoxy)phenyl)-3,4-dihydro-2H-pyrano[3,2-b]pyridin-4-yl)-1,2-dihydroisoquinoline-6-carboxamide formate], the IC50 is 10 nM.

With `O=C(N[C@]1(c2ccc(OC(F)(F)F)cc2)CCOc2cccnc21)c1cc2nccc(C3CC3)n2n1` [Example 224, (S)-7-cyclopropyl-N-(4-(4-(trifluoromethoxy)phenyl)-3,4-dihydro-2H-pyrano[3,2-b]pyridin-4-yl) pyrazolo[1,5-a] pyrimidine-2-carboxamide formate], the IC50 amounted to 116 nM.

As for `COc1ccc2cc(C(=O)N[C@]3(c4ccc(OC(F)(F)F)cc4)CCOc4cccnc43)cnc2c1` [Example 225, (S)-7-methoxy-N-(4-(4-(trifluoromethoxy)phenyl)-3,4-dihydro-2H-pyrano[3,2-b]pyridin-4-yl)quinoline-3-carboxamide formate], the half-inhibitory concentration (IC50) turned out to be 12 nM.

With `O=C(N[C@]1(c2ccc(OC(F)(F)F)cc2)CCOc2cccnc21)c1cocn1` [Example 226, (S)-N-(4-(4-(trifluoromethoxy)phenyl)-3,4-dihydro-2H-pyrano[3,2-b]pyridin-4-yl)oxazole-4-carboxamide formate], the IC50 amounted to 150 nM.
